Reference: patent US7491501B2, “Methods for identifying modulators of intracellular aggregate formation” (Auburn University, priority 2003, dated 2009)
Where a SMILES comes first, the peptide text is derived from it. [ ]: non-standard residue; d: D form. The star is where a group is joined. Nle = CCCC[C@H](N)C(=O)O; Cbz = O=C(OCc1ccccc1)*

Assays:
GFP-p62-expressing cells = test: Live/Dead Viability/Cytotoxicity assay of cells with or without p62 aggregates; type: cell-based; conditions: With ALLN; cells scored by GFP-p62 expression
Experimental: Cell Death Assay—Live and dead cells were identified with LIVE/DEAD Viability/Cytotoxicity Kit (Molecular Probes, Eugene, Oreg.) according to the manufacturer's instruction.
The role of aggregates and their relationship to cell survival are controversial. […] Viability of cells with p62 aggregates employing the Live/Dead Viability/Cytotoxicity assay was determined (Table 1).

[1] = tested on: p62 aggregates in HEK cells; test: p62 aggregate formation by confocal/fluorescence microscopy in transfected HEK cells; type: cell-based, Human; conditions: for large p62 aggregates upon inhibition of proteasomal degradation: MG132 data not shown; for size of aggregates of cotransfected p62, ubiquitin, TRAF6, tau, UbcH7: cotransfected cells (FIG. 9C), MG132 not shown; for formation of the p62 aggregates (microtubule dependence): data not shown
Experimental: Immunofluorescence staining—All steps were done at room temperature unless stated otherwise. The inclusion bodies were placed on poly-L-lysine coated 12 well slides (Cel-line/Erie Scientific Co., Portmouth, N.H.) and let partially dry. Inclusion bodies on the slides were fixed for 10 min in 3% paraformaldehyde (Electron Microscopy Sciences, Fort Washington, Pa.) and permeabilized with 0.1% Triton X-100 in PBS for 15 minutes. The inclusion bodies were incubated in blocking buffer (3% non fat dry milk in PBS) for 1 h, prior to incubation with primary antibodies at 4° C. overnight. After washing with PBS, the secondary antibody (Molecular Probes Inc., Eugene, Oreg.) in blocking buffer was applied for 1 h. After extensive washing in PBS, the samples were mounted using Vectashield (Vector Laboratories Inc., Burlingame, Calif.). The cells were fixed with 3% paraformaldehyde and processed similar to that of inclusion staining.
Cells were incubated with rabbit anti-myc IgG or mouse anti-HA IgG and labeled with Texas Red-conjugated anti-rabbit antibodies (red) or Oregon Green-conjugated anti-mouse antibodies (green), respectively. Merged images with overlapping immunoreactivity are shown in yellow. Note that cells expressing p62 lacking its UBA domain (p62ΔUBA) fail to form aggregates or to colocalize with ubiquitin. All experiments were replicated three independent times with similar results. Small aggregates of p62 colocalized with ubiquitin which was dependant upon the presence of a UBA domain but not the N-terminal portion of p62. Aggregation may impair the proteasome or, alternatively, impaired proteasome activity may seed aggregates. Alternatively, impairment of the proteasome may enhance the formation of p62 aggregates containing polyubiquitin.
In summary, through its UBA domain, p62 Interacts with polyubiquitinated substrates, and the UBA domain is necessary for aggregate formation.
Since TRAF6 localized to the large aggregates along with polyubiquitin (FIG. 2B), these aggregates may represent the failed attempt of the cell to rid itself of TRAF6-K63-polyubiquitinated substrates sequestered through interaction with the UBA domain. […] Altogether, these findings reveal that p62 binds proteins with K63 chains through its UBA domain and that p62 aggregates sequester TRAF6 as well as K63-polyubiquitinated substrates.
To further determine if the coassociation of tau-p62-TRAF6 and UbcH7 could be recapitulated in vitro, a cotransfection approach was undertaken. […] HEK cells were transfected with GFP-p62 followed by treatment or not with Aβ1-42 and Aβ42-1 peptides. […] This is consistent with the observation that microtubule dependent transport is important for the formation of p62 inclusions as assessed by treatment of the cells with nocodazole, a microtubule disrupting agent (9).

HEK cells = test: Cell survival by MTS reagent in p62-transfected HEK cells (FIG. 1D); type: cell-based, Human; conditions: ALLN (50 μM) 30 h
Experimental: In FIG. 1D HEK cells (in a 24-well plate) were transfected with myc-tagged wild-type p62, p62ΔUBA, or p62ΔN-term along with HA-tagged ubiquitin constructs. After 24 h of transfection, the cells were treated with or without ALLN (50 μM) for 30 h. Cell survival was assessed by the addition of MTS reagent for 2 h. Values plotted in FIG. 1D are means±standard error of the means of four different experiments.

ubiquitinated tau = test: Accumulation of ubiquitinated tau in tau-transfected HEK cells treated with degradation inhibitors; type: cell-based, Human; conditions: 50 μM ALLN, 5 μM MG132 or 0.15 mM chloroquine, 24 h
Excerpt: Depletion of p62 levels by transfection of antisense (AS) p62 retarded the turnover of p62 (FIG. 12A). […] Collectively these findings reveal that tau turnover is regulated by both the expression of p62 and the presence of K63 polyubiquitin chains carried by tau. The best known function of protein ubiquitination is to target proteins for degradation by the 26S proteasome. However, K63 chains have been hypothesized to play a role aside of targeting proteins to the proteasome. To test whether K63 chains are able to signal proteasomal degradation, tau was first ubiquitinylated in an in vitro reaction with K63 ubiquitin. The protein complex containing polyubiquitinated tau on beads was then incubated with 26S proteasome supplemented with MgCl2 and ATP. The polyubiquitinated chains disappeared after incubation with purified 26S proteasome (FIG. 12B). To determine whether the observed disappearance of polyubiquitinated products is due to degradation or to the deubiquitinating activity in the 26S proteasome fraction, a deubiquitination inhibitor, Ub-H was added to the reaction. […] To test if ubiquitinated tau was targeted to the proteasome, HEK cells cotransfected with His-tau were treated with ALLN, MG132 or chloroquine. Both ALLN and MG132 block proteasome degradation, whereas chloroquine blocks degradation through the lysosome. It was observed that ubiquitinated tau accumulates in the presence of proteasome inhibitors, but not chloroquine, thus confirming that polyubiquitinated tau is degraded by the proteasome (FIG. 12C).

[2] = tested on: tau aggregates in PC12 cells; test: Tau aggregate formation in NGF-treated PC12 cells (Table 3); type: cell-based; conditions: PC12, NGF 50 ng/ml; MG132 25 μM, Aβ peptides 10 μM; 6% without agent
Experimental: PC12 cells were treated with NGF to induce tau polyubiquitination and treated or not with MG132 or Aβ and Aβ1-42, Aβ42-1. […] The relationship between aggregate formation and cell death was assessed (Tables, 3 & 4). Tau aggregate formation was observed upon treatment with MG1 32 or Aβ1-42 peptide. […] Furthermore, aggregate formation correlated with enhanced […] (Table 4).
All cells were treated with NGF (50 ng/ml), followed by addition of control or inhibitory TRAF6 peptide +/−Aβ peptide. Cells were stained for tau and 300 cells from two independent experiments were scored for the presence of tau aggregates or not.

PC12 cells = test: Cell survival assay (MTS) in NGF-treated PC12 cells (Table 4); type: cell-based; conditions: PC12, NGF 50 ng/ml, MG132 25 μM, Aβ peptides 10 μM, 24 h, 100% without agent
Experimental: Cell Survival Assay—PC 2 cells were treated with 50 ng/ml NGF 24 h prior to addition of TRAF6 control or inhibitor peptide (75 μM). After 5 h, the cells were treated for an additional 24 h with or without MG132 (25 μM), Aβ peptide 42-1 or 1-42 (10 μM). Cell survival was measured by MTS assay.
All cells were treated with NGF (50 ng/ml), followed by addition of control or inhibitory TRAF6 peptide +/−Aβ peptide. Survival was measured by MTS assay.

[3] = target: T1, interaction of p62 with TRAF6 (Rattus norvegicus, UniProt B5DF45); test: TRAF6 immunoprecipitation and Western blot for p62/UbcH7 in NGF-stimulated PC12 cells; type: cell-based; conditions: 150 μM peptide 5 hours, NGF 15 min
T1 construct: followed by NGF stimulation for 15 min and immunoprecipitation of TRAF6 followed by Western blotting for p62; endogenous in cells; host or cells: PC12
T1 sequence (B5DF45 whole entry): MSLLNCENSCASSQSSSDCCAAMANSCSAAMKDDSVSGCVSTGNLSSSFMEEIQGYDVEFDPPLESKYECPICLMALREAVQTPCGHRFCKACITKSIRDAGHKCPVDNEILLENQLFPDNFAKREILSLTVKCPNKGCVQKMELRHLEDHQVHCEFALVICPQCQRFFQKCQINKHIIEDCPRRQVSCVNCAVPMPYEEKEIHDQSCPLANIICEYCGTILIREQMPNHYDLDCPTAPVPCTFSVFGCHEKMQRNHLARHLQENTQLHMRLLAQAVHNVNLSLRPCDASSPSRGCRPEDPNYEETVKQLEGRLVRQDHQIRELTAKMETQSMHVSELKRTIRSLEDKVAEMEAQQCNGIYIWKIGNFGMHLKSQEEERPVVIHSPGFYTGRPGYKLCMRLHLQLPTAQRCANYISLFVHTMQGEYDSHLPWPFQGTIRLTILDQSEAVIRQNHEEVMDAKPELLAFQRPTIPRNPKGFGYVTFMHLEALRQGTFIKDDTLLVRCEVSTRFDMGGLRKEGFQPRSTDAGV
T1 sequence (D3Z8W5 1-154 partner): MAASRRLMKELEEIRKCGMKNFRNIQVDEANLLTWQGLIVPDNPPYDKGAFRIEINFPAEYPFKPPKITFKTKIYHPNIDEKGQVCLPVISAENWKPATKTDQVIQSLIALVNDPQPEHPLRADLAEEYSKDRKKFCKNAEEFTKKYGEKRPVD
Experimental: Immunoprecipitation and Western blotting—Each mg of lysate/inclusion bodies was incubated with 41 ng of primary antibody at 4° C. for 3 h and then with 50 μl of 50% agarose-coupled secondary antibody for 2 more hours at 4 C. The beads were washed three times with lysis buffer, eluted by adding SDS-PAGE sample buffer, and subjected to SDS-PAGE in 7.5-12% acrylamide gels. Immunoblotting was performed on nitrocellulose membranes and analyzed by western blotting with ECL detection reagents (Amersham Biosciences).
(§1) The region spanning amino acids 225-251 is necessary for the interaction of p62 with TRAF6. The peptide containing TRAF6 binding motif in p62 along with the hydrophobic sequence containing the cell-permeable motif from Kaposi fibroblast growth factor sequence, […]-[…] (SEQ ID NO. 4) and control peptide […]-[…] (SEQ ID NO. 5) was synthesized. As a preliminary step, PC12 cells were pretreated with various concentrations of peptide for 5 h, followed by NGF stimulation for 15 min and immunoprecipitation with TRAF6 and western blotted with p62. […] The peptide was then tested for its ability to block NGF-induced tau polyubiquitination (FIG. 13A).
(§2) The peptide containing the TRAF6-binding motif in p62 along with the hydrophobic sequence containing the cell-permeable motif from Kaposi fibroblast growth factor signal sequence […]-[…] (SEQ ID NO. 4) and control peptide […]-[…] (SEQ ID NO. 5) was synthesized. As a preliminary step, PC12 cells were pretreated with different concentrations (75-300 μM) of TRAF6 peptide for 5 hours followed by NGF stimulation for 15 min and immunoprecipitation of TRAF6 followed by Western blotting for p62. […] To address whether TRAF6 peptide affects the interaction of p62 and UbcH7 with TRAF6, PC12 cells were treated with or without 150 μM of control peptide or TRAF6 peptide for 5 hours and then stimulated with NGF for 15 min. By immunoprecipitating TRAF6, TRAF6 peptide (150 μM) abrogated the interaction of p62 with TRAF6, but not UbcH7, upon NGF treatment (FIG. 8A). […] The ability of the TRAF6 peptide to impair the ubiquitination process was investigated. Lysates recovered from NGF treated cells were immunoprecipitated with TrkA receptor antibody and blotted for ubiquitin or the receptor (FIG. 15B). […] The ability of the peptide to interrupt the formation of the functional TrkA-p62-TRAF6-UbcH7 complex on NGF stimulation as well was also investigated. TrkA was immunoprecipitated and blotted for the presence of each protein in the complex (FIG. 15C).

tau polyubiquitination = test: NGF-induced tau polyubiquitination in PC12 cells (FIG. 13A); type: cell-based; conditions: control not shown
Experimental: as §1

TrkA = test: NGF-dependent TrkA ubiquitination and TrkA complex formation in PC12 cells (FIG. 15B, 15C); type: cell-based; conditions: NGF treated, TrkA immunoprecipitation
Experimental: as §2

[4] = tested on: internalization of NGF by PC12 cells; test: Internalization of NGF, 125I-NGF binding assay in PC12 cells (FIG. 15D); type: cell-based; conditions: PC12 cells pretreated with peptide (150 μM); control not shown
Experimental: Additionally, PC12 cells were pretreated or not with TRAF6 peptide (150 μM) followed by measurement of internalized receptor employing 125I-NGF binding assay (FIG. 15D). […] Similarly, the level of internalized NGF was measured in PC12 cells transfected with wild-type ubiquitin, K48R or K63R ubiquitin mutants (FIG. 15E). Transfection of ubiquitin, or K48R mutant was without any effect on internalization of NGF. By comparison, transfection of K63R ubiquitin mutant totally abrogated internalization of the ligand. […] Thus, p62 serves as an adaptor, as well as, a scaffold for TRAF6-directed ubiquitination and K63 chains play a signaling role for internalization and sorting of the receptor.

CCCC[C@@H](C=O)NC(=O)[C@H](CC(C)C)NC(=O)[C@H](CC(C)C)NC(C)=O [ALLN, N-acetyl-Leu-Leu-Norleu-AL] (Ac-Leu-Leu-[Nle]-aldehyde)
% of cells, With aggregates, Alive (GFP-p62-expressing cells): 48%
% of cells, With aggregates, Dead (GFP-p62-expressing cells): 52%
% of cells, Without aggregates, Alive (GFP-p62-expressing cells): 38%
% of cells, Without aggregates, Dead (GFP-p62-expressing cells): 62%
size of the aggregates ([1]; HEK cells, ALLN (50 μM) 24 h, 6 to 8 microns without ALLN): 12 to 14 microns
GFP-p62-expressing cells accumulating large p62 aggregates ([1]; HEK cells, ALLN treatment): 100%
average number of aggregates per cell ([1]; HEK cells, with versus without ALLN): essentially similar
large p62 aggregates upon inhibition of proteasomal degradation ([1]; HEK cells): large aggregates of p62 which contained sequestered polyubiquitin were visible
size of aggregates of cotransfected p62, ubiquitin, TRAF6, tau, UbcH7 [1]: increased in size
cell survival-promoting effects of p62 (HEK cells): completely inhibited
accumulation of ubiquitinated tau (ubiquitinated tau): accumulates

CC(C)C[C@@H](C=O)NC(=O)[C@H](CC(C)C)NC(=O)[C@H](CC(C)C)NC(=O)OCc1ccccc1 [MG132, Z-Leu-Leu-Leu-CHO] (Cbz-Leu-Leu-Leu-aldehyde)
large p62 aggregates upon inhibition of proteasomal degradation ([1]; HEK cells): large aggregates of p62 which contained sequestered polyubiquitin were visible
size of aggregates of cotransfected p62, ubiquitin, TRAF6, tau, UbcH7 [1]: increased in size
cells with tau aggregates, agent alone (Control, no TRAF6 peptide) [2]: 82%
cell survival, agent alone (Control, no TRAF6 peptide) (PC12 cells): 44.3%
accumulation of ubiquitinated tau (ubiquitinated tau): accumulates

CCN(CC)CCCC(C)Nc1ccnc2cc(Cl)ccc12 (centres unmarked) [chloroquine]
accumulation of ubiquitinated tau (ubiquitinated tau): not

COC(=O)Nc1nc2ccc(C(=O)c3cccs3)cc2[nH]1 [nocodazole]
formation of the p62 aggregates (microtubule dependence) [1]: prevented their formation

CC[C@]1(O)C[C@@H]2CN(CCc3c([nH]c4ccccc34)[C@@](C(=O)OC)(c3cc4c(cc3OC)N(C)[C@H]3[C@@](O)(C(=O)OC)[C@H](OC(C)=O)[C@]5(CC)C=CCN6CC[C@]43[C@@H]65)C2)C1 [vinblastine]
formation of the p62 aggregates (microtubule dependence) [1]: prevented their formation

AAVALLPAVLLALLAP-ESASGASADASVNFLK [control peptide]
interaction of p62 with TRAF6 [3]: without effect
NGF-induced tau polyubiquitination (tau polyubiquitination): not
NGF-dependent ubiquitination of TrkA (TrkA): no effect
internalization of NGF [4]: not

Aβ1-42: neurotoxic amyloid beta peptide
formation of p62 aggregates by Aβ peptide ([1]; HEK cells transfected with GFP-p62 (FIG. 9D)): induced formation of p62 aggregates
cells with tau aggregates, agent alone (Control, no TRAF6 peptide) [2]: 72%
cell survival, agent alone (Control, no TRAF6 peptide) (PC12 cells): 45.7%
